The text below walks through data of a melting point compilation (Tetko et al.; mined from patent text by program, amines drawn as free bases though some values may be those of a salt).

Structures are written as SMILES. Where only a bound is given, the exact number is not on record here.

Usually melting point stands for the temperature, or range, at which the solid turns liquid. With `CS(=O)(=O)c1ccc(/C(=C(/CO)CCO)c2ccc(Cl)cc2)cc1`, the melting point lay in the range of 159 to 160 °C.
In the case of `Oc1ccc(CCCCn2ccnc2)cc1`, the melting point lay in the range of 124 to 125 °C.
The molecule `Cc1cc(F)ccc1NC(=O)c1cccc(S(=O)(=O)N(C)c2ccc(Br)cc2)c1` gave a melting point of 163 to 165 °C.
`O=C(Nc1nc(C(F)(F)F)co1)C1c2ccccc2Oc2ccc(F)cc21` (racemic) displayed a melting point of 241 °C.
The result for `C/C(=C\c1cc(F)cc(F)c1)C(=O)O` reads 148 °C; that for `COCc1nc(-c2ccc(Br)c(C)c2)no1`, 52 to 53.5 °C; that for `CCCNC(=O)C1CC(=O)N(Cc2ccccc2)C1` (stereo not drawn), 86 to 87 °C.
Take `Cn1c(COc2ccc(CC3SC(=O)NC3=O)cc2)cc2ccccc21` (stereo not drawn): the melting point was 174 to 176 °C.
Turning to `NC(=O)c1ncn2c1NCC=C2c1cccc(Cl)c1`, the melting point is 182 to 184 °C.
For the molecule `Cc1cc(C)c(NC(=O)C2c3ccccc3COc3ccc(C)cc32)c(C)c1` (stereo not drawn), the melting point is 148 to 149 °C.
In turn, `COc1ccc(CNc2cc(C(N)=O)c([N+](=O)[O-])cc2[N+](=O)[O-])cc1` gave a melting point of 201 to 203 °C.
In turn, `CC(C)(C)N1CC(c2ccc([N+](=O)[O-])cc2)OC1=O` (stereo not drawn) gave a melting point of 123 to 125 °C.
`CCOc1ccc(C2=NC[C@@H](OC(=O)Nc3ccccc3)[C@H](c3ccccc3)O2)cc1` (racemic) showed a melting point of 80 °C.
`CC(=O)Nc1ccc(S(=O)(=O)Nc2cccc3[nH]ccc23)cc1` gave a melting point above 260 °C.
With `NC(=NO)c1ccno1`, the melting point was 146 to 148 °C.
Consider `CCC1(C)C(=O)N=C(SCc2ccccc2N(C)C)N1C(C)=O` (stereo not drawn), for which the melting point is 83 to 85 °C.
The value for `CC(=O)c1ccc(NC(=O)Nc2ccc(S(N)(=O)=O)cc2)cc1` was 258 to 260 °C; that for `Nc1c(-c2ccc(-c3ccc(F)cc3)cc2)nc2ccc(F)cc2c1C(=O)O` was 241 to 243 °C.
The molecule `C=C(Br)Cc1cc2c(C)cc(=O)oc2c(C)c1O` registered a melting point of 154 to 161 °C.
Take `COC(=O)Cc1ccc(Oc2ccc(S(C)(=O)=O)cc2)cc1`: the melting point lay within 93 to 98 °C.
In the case of `Cc1c(C)c(N2CCN(c3ccc(C(F)(F)F)cc3)CC2)c(C)c2c1OC(C)(C)C2O` (stereo not drawn), the melting point lay in the range of 212 to 214 °C.
Regarding `O=c1c2c(oc3cc(OCCN4CCOCC4)ccc13)C(=Cc1ccccc1)CC2`, the melting point lay within 167 to 169 °C.
Regarding `c1ccc(C(N=C2CCCCC2)c2ccccc2)cc1`, the melting point lay in the range of 71 to 72 °C.
Molecule `CC(Oc1ccc(Cl)cc1Cl)c1nnc(N)s1` (stereo not drawn) displayed a melting point of 119 to 123 °C.
`CCOC(=O)c1cn(C2CC2)c2cc(N3C[C@@H](C)N[C@@H](C)C3)c(F)c(N)c2c1=O` displayed a melting point of 194 to 196 °C.
Turning to `CC(=O)Nc1cccc(-c2nn(Cc3oc4ccccc4c(=O)c3-c3ccccc3)c3ncnc(N)c23)c1`, the melting point is 122 to 123 °C.
In turn, `O=C(NP(=O)(O)CCc1ccccc1)OCc1ccccc1` came in with a melting point of 110 °C.
The molecule `CCCSc1c2ccccc2nc2c1c(C)nn2-c1ccccn1` had a melting point of 91 to 93 °C.
In the case of `COC(=N)N1CCC(c2nn(-c3ccccc3)c3ccccc23)CC1`, the melting point is 80 to 83 °C.
`COc1ccccc1-c1ccc(C(=O)N2Cc3ccc(C(=O)O)n3Cc3ccccc32)cc1C` displayed a melting point of 133 to 135 °C.
In turn, `Cc1nc2n(c(=O)c1CCCl)CCCN2Cc1ccccc1` came in with a melting point of 114 °C.
The molecule `O=C(c1ccccc1)c1c(O)c2cc(Cl)cc(Cl)c2[nH]c1=O` gave a melting point of 258 to 259 °C.
`COc1ccc(N2CCN(c3c(C)c(C)c4c(c3C)C(c3ccsc3)C(C)(C)O4)CC2)cc1` (stereo not drawn) had a melting point of 128 to 131 °C.
As to `CN(C)c1c(Br)cc2c3c(cccc13)C(=O)N(O)C2=O`, the melting point lay within 185 to 187 °C.
`N#CCCn1nc(-c2ccc(OCc3ccccc3)cc2)oc1=O` came in with a melting point of 136 °C.
`CS(=O)(=O)N1CCC(C(CS(=O)(=O)c2ccc(Oc3ccc(OC(F)(F)F)cc3)cc2)N(O)C=O)CC1` (stereo not drawn) displayed a melting point of 178 to 179 °C.
The molecule `CCOC(=O)c1cn(C)c2cnc3c(F)c(F)ccc3c2c1=O` gave a melting point of 320 °C.
The value for `CCOC(=O)c1cc2cc(OCCCS(C)(=O)=O)cc(NS(=O)(=O)c3ccccn3)c2[nH]1` was 194 to 195 °C; that for `COc1nccc2c(=O)n(C)c(-c3ccc(OC4CCN(C5CCC5)CC4)cc3)nc12` was 178 to 180 °C; that for `O=C(O)c1cn(-c2ccnc3ccccc23)c2ccc(F)cc12` was 148 °C.
The result for `O=C(O)c1nc(-c2ccc(-c3ccccc3)cc2)nc2ccccc12` reads 175 to 176 °C; that for `CC1SC(=O)NN=C1c1ccc2c(c1)C(=NNC(=O)c1cccs1)C(=O)N2` (stereo not drawn), above 300 °C; that for `O=C(O)c1ccc(-c2nnc(-c3ccccc3[N+](=O)[O-])o2)cc1`, 239 to 240 °C.
As to `O=C(C(Cl)=CO)c1ccc(Cl)cc1Cl`, the melting point turned out to be 162 °C.
As for `COc1ccc2nc(N3CCN(C[C@H]4COc5ccc6nc(C)ccc6c5O4)CC3)ccc2c1`, the melting point lay in the range of 95 to 97 °C.
`O=C(NCc1ccc(C(F)(F)F)cc1)Nc1cccc2[nH]ccc12` yielded a melting point of 178 °C.
On to `O=C1C=C(Nc2cccc(F)c2)CCN1`, for which the melting point was in the range of 188 to 190 °C.
In the case of `CCOC(=O)C(Cc1ccc2ccc3cccc4ccc1c2c34)(NC(C)=O)C(=O)OCC`, the melting point lay within 135 to 140 °C.
The molecule `O=c1[nH]cnc(C(F)(F)F)c1Br` showed a melting point of 226 to 227 °C.
Take `CCCNC(=O)c1ccc2c(c1)N(C(C)CN1CCCC1)c1ccccc1S2` (racemic): the melting point lay in the range of 75 to 80 °C.
`COC(=O)CC1=C(C)Cc2cc(F)c(OC)cc21` had a melting point of 61 to 62 °C.
The value for `COc1ccc(CNC(=O)c2ccc3n2Cc2ccccc2N(C(=O)c2ccc(-c4ccccc4C)c(OC)c2)C3)cc1` was 178 to 179 °C.
`NCCN1CCC(Nc2nc3ccccc3n2Cc2ccccn2)C1` (stereo not drawn) showed a melting point of 130 °C.
`CC(C)(C)c1cc(C=O)n(Cc2ccc(C(F)(F)F)cc2Cl)n1` showed a melting point of 147 to 149 °C.
In the case of `OCC1=CC=C(COc2cccc(O)c2)SS1`, the melting point came out at 116 °C.
In turn, `O=C1CCN(CCCn2c(=O)[nH]c3ccccc32)CC1` displayed a melting point of 134 to 136 °C.
Turning to `CC(=O)N(CCCC(=O)O)c1ccccc1-c1ccccc1`, the melting point was 124 to 125 °C.
For `COP(=O)(OC)[C@H](C)NC(=O)[C@H](C)NC(=O)CNC(=O)CNC(=O)OCc1ccccc1`, the melting point was 124 to 127 °C.
Turning to `CCCCCc1cc2c(nc(O)n2CCCCS(C)(=O)=O)c(N)n1`, the melting point lay in the range of 188 to 189 °C.
`CC(C)(C)N1CC(=O)Nc2cccc(Cl)c21` registered a melting point of 198 °C.
On to `Clc1cc(CBr)c2noc(-c3ccccc3)c2c1`, for which the melting point lay in the range of 142 to 144 °C.
The result for `Oc1cc(-c2cccc(C(F)(F)F)c2)nc2ccnn12` reads 305 to 310 °C; that for `CC1CCc2ccc(CC(=O)O)cc2C(=O)C1` (stereo not drawn), 105 to 107 °C.
As for `CC(C)(C)c1ccc(Oc2nc(Nc3cccc(C(=O)O)c3)nc(Oc3ccccc3)n2)cc1`, the melting point was 245 to 247 °C.
Molecule `O=C(N[C@H]1CCN(C(=O)c2cc(C(F)(F)F)cc(C(F)(F)F)c2)[C@H](Cc2ccc(Cl)cc2)C1)c1ccnc2ccccc12` came in with a melting point of 204 to 207 °C.
The molecule `Cc1nnc2n1-c1ccc(C#CCC3C(=O)Nc4ccccc43)cc1C(c1ccccc1Cl)=NC2` (stereo not drawn) came in with a melting point of 141 to 143 °C.
The result for `CC[C@H](C)[C@H](Nc1nc2ccccc2c(=O)o1)C(=O)OC` reads 86 to 87 °C; that for `Cc1ccc(SCC(=O)O)o1`, 35 to 36 °C.
The result for `Cc1c(N2CCC(N(C)C)C(C)(C)C2)c(F)cc2c(=O)c(C(=O)O)cn(C3CC3)c12` (stereo not drawn) reads 209 to 210 °C.
In turn, `COc1cc(-c2nc3ccccc3n2Cc2ccccc2Br)cc(OC)c1OC` gave a melting point of 152 °C.
The result for `Cc1ccc(Sc2ccccc2)c(C(=O)O)c1` reads 156 to 157 °C; that for `O=c1[nH]c2cc(Cl)ccc2c(=O)n1CCCN1CC=C(c2ccc(Cl)cc2)CC1`, 225 to 227 °C.
Turning to `CC(=O)N(c1cc(F)c(C#N)cc1F)c1nnnn1-c1ccc(OC(F)(F)F)cc1`, the melting point was in the range of 108 to 110 °C.
The result for `CCOP(=O)(Cc1ccc(C(=O)Nc2ccc(Br)cc2C#N)cc1)OCC` reads 165 to 166 °C; that for `CSCC[C@H](NC(=O)[C@@H]1CS[C@H](c2ccccc2O)N1C(=O)CCSC(C)=O)C(=O)O`, 59 to 64 °C.
The result for `CCCCCCCCC(=O)NCc1ccc(C#N)cc1` reads 185 to 187 °C; that for `CCCn1c(=O)c2c(n(Cc3ccccc3)c1=O)NN=C(NC(C)=O)S2`, 135 to 140 °C; that for `COC(=O)Cc1cc(C(=O)c2ccccc2Cl)c(N)s1`, 102 to 105 °C.
The result for `Cc1cc(-n2c(Cl)cnc2C)cc2ccc(=O)[nH]c12` reads 258 to 261 °C.
Turning to `COc1ccc(C2=NN(C3CCN(C(=O)NC(C)(C)C)CC3)C(=O)CC2)cc1OC`, the melting point is 76 to 78 °C.
The value for `Cc1ccccc1CNC(=O)[C@@H]1CSCN1C(=O)[C@@H](O)[C@H](Cc1ccccc1)NC(=O)C(C)C(C)C(=O)OC[C@H]1O[C@@H](n2cc(C)c(=O)[nH]c2=O)CC1N=[N+]=[N-]` (stereo partly drawn) was 114 to 115 °C.
Molecule `CCCC(CCC)n1c(CC)nc2c1c(=O)n(C)c(=O)n2Cc1ccc(OC)cc1` came in with a melting point of 120 to 122 °C.
The molecule `CC(=O)Nc1ccc(OC(=O)CCl)cc1` showed a melting point of 186 °C.
Consider `COc1ccc(C(=O)N2c3ccc(OC)cc3CC2C(=O)O)cc1` (stereo not drawn), for which the melting point lay within 151 to 152 °C.
Regarding `CC(C)C1C(=O)Nc2ccc(OCC3CO3)cc21` (stereo not drawn), the melting point fell in the range of 122 to 125 °C.
`COc1cc(C)nc(NC(=O)NS(=O)(=O)C2=CCCCC2)n1` gave a melting point of 163 to 166 °C.
Consider `N#Cc1ccc(Oc2ccccc2[N+](=O)[O-])cc1C#N`, for which the melting point worked out at 127 °C.
`O=[N+]([O-])CS(=O)(=O)c1ccc(Oc2ccccc2)cc1` gave a melting point of 118 to 120 °C.
